Experimental data as given in publication PMC6832265 (Molecules, 2019).
“Also recorded” adds a separate entry of the source. Read-outs that look alike come from different tables or passages of the source. One block for each compound: values may come before it.

Legend:
[1] = tested on: mice; conditions: ref Registry of Toxic Effects of Chemical Substances, cited from earlier work
[2] = tested on: Lewis lung carcinoma; design: method as in PMID 30903487; conditions: Lewis lung carcinoma models; cited from earlier work
[3] = molecular target: T1, Tdp1 (Homo sapiens, UniProt Q9NUW8); test: Real-time detection of Tdp1 activity (5'-FAM/3'-BHQ1 oligonucleotide biosensor); type: biochemical; conditions: 1.5 nM Tdp1, 50 nM oligonucleotide substrate, 26 °C
T1 construct: made in house; host or cells: Escherichia coli
Procedure, shortened: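 Recombinant human Tdp1 (E. coli-expressed, 1.5 nM) with 50 nM 16-mer ssDNA 5'-FAM/3'-BHQ1 biosensor in 50 mM Tris-HCl, 50 mM NaCl, 7 mM β-mercaptoethanol, 26 °C; fluorescence (Ex485/Em520) read each minute. Inhibition from linear-phase slope (0–7 min) vs 1.5% DMSO control; IC50 from six-point curves, ≥2 independent experiments.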

[4] = molecular target: T2, recombinant Tdp1 (residues 149–608) (Homo sapiens, UniProt Q9NUW8); test: Intrinsic tryptophan fluorescence quenching binding assay; conditions: 10 µM Tdp1, 20 mM Tris, 250 mM NaCl, pH 8; triplicate
T2 construct: recombinant Tdp1 (residues 149–608) was obtained from GenScript; host or cells: E. coli BL21(DE3)
Protocol: The binding of the synthesized compounds to recombinant Tdp1 was also tested (Table 1 and Table 2) by using an intrinsic tryptophan fluorescence quenching assay. […] As our compounds are aromatic in nature, there is a possibility that they may bind to both the active site as well as non-specifically to the DNA/peptide binding pockets. Nonetheless, our results confirmed that the compounds were indeed binders of Tdp1, thus complementing our inhibition data.
pET-28a(+) plasmid encoding recombinant Tdp1 (residues 149–608) was obtained from GenScript. E. coli BL21(DE3) was used for recombinant protein production. Protein production was induced with 1 mM IPTG at 28 °C with overnight incubation. Tdp1 was purified using affinity and size exclusion chromatography. Fluorescence was measured using a PerkinElmer EnSpire Multimode Reader. Tdp1 concentration was 10 μM with varying compound concentrations. The buffer was 20 mM Tris and 250 mM NaCl (pH 8). The excitation wavelength was 280 nm and intrinsic fluorescence was measured at 350 nm. Control experiments with Tdp1 or the compound on its own were also conducted. Background fluorescence arising from the compounds was subtracted from the final spectrum. The total volume per well was 30 μL. The dissociation constant (KD) was calculated using Equation (1), which takes non-specific binding into account. y = Bmaxx/(KD + x) + Nsx(1) where y denotes the changes in fluorescence intensity; x denotes the concentration of the compounds; Bmax denotes the maximum changes in fluorescence intensity; and Ns is a scaling factor for non-specific binding. Experiments were conducted in triplicate.

[5] = MTT test, intrinsic cytotoxicity; type: cell-based; conditions: human, HeLa cells (cervical carcinoma), compound alone
Description: First, we studied the intrinsic cytotoxicity of the compounds against HeLa cells (cervical carcinoma). For experiments on cells, we selected compounds which combined high inhibitory activity with good chemical accessibility. The MTT test data are shown in Figure 4 for compounds from both the heteroarylidene-hydrazinotiazole and arylidene-hydrazinotiazole subclasses. […] Heteroarylidene-hydrazinothiazole derivatives (+)- and (−)-16f, containing a bromothiophene residue, also have low toxicity (CC50 about 80 µM), while the 16d pair, containing a nitro group that is a known toxicophore, suppressed cell growth at a concentration of 20 µM.
Analysis of the intrinsic toxicity of the compounds was examined against human cell line HeLa (cervical cancer) using a standard MTT test by colorimetric measurement of the amount of formazan converted from 3-(4,5-dimethylthiazol-2-yl)-2,5-diphenyl-2H-tetrazolium bromide in cells exposed to the compounds. […] After formation of a 30–50% monolayer, tested compounds were added to the medium (the volume of added reagents was 1/100 of the total volume of the culture medium, the amount of DMSO was 1% of the final volume), and the cell culture was monitored for three days. […]

[6] = tested on: HeLa cells; test: MTT test, combination of Tdp1 inhibitors with topotecan; type: cell-based, human
[7] = molecular target: T1, Tdp1; conditions: cited from earlier work
[8] = tested on: Top1; design: method as in PMID 28418653; conditions: cited from earlier work
[9] = tested on: Tdp2; design: method as in PMID 28418653; conditions: cited from earlier work

T2 sequence (Q9NUW8 149-608): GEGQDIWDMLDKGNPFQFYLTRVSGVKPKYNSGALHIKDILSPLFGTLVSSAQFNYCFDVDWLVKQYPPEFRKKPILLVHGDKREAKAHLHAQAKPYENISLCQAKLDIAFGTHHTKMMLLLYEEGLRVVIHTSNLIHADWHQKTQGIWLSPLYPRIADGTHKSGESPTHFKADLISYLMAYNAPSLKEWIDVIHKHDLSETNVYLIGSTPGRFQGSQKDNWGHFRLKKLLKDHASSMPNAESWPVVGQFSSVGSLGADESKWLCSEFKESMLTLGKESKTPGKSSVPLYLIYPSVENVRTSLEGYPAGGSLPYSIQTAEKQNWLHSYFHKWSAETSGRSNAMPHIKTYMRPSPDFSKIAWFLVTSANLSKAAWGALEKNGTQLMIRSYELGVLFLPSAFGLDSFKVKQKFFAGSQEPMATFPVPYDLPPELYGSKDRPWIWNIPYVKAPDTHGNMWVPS
T1 sequence (Q9NUW8 whole entry): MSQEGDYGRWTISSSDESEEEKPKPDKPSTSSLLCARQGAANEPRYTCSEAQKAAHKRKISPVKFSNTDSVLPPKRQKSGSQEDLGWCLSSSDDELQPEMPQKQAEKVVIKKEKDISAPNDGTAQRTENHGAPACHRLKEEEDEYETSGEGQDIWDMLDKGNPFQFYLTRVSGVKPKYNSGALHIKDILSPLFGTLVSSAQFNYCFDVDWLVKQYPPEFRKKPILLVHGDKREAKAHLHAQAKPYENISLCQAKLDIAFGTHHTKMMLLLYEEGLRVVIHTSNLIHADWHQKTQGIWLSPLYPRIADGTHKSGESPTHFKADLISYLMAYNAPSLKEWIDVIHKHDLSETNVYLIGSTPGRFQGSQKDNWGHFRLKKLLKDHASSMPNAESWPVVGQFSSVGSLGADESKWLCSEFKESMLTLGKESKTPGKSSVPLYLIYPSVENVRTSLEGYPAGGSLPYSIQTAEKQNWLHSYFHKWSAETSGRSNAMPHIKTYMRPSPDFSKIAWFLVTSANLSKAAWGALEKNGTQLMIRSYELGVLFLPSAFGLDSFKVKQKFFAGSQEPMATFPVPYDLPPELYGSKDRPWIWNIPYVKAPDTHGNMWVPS

Compound: 2,6-diacetyl-7,9-dihydroxy-8,9b-dimethyl-1,3(2H,9bH)-dibenzo-furandione [Usnic acid]
- LD50 ([1]; mice): 838 mg/kg
- toxicity class [1]: class III toxicity (moderately toxic)

Compound: CC(=O)c1c(O)c(C)c(O)c2c1OC1=CC(=O)/C(=C(/C)NCCCc3cc(C(C)(C)C)c(O)c(C(C)(C)C)c3)C(=O)[C@@]12C [9b]
- metastasis growth [2]: reduces metastasis growth

- IC50 [3]: 0.088 ± 0.003 µM
- Kd [4]: 95 ± 11 µM
Compound: CC(=O)C1=C(O)C=C2Oc3c(-c4csc(N/N=C/c5ccc(Br)s5)n4)c(O)c(C)c(O)c3[C@@]2(C)C1=O [(+)-16f, (2R)-4-Acetyl-5,11,13-trihydroxy-2,12-dimethyl-10-{2-[(E)-2-[(5-bromothiophen-2-yl)methylidene]hydrazin-1-yl]-1,3-thiazol-4-yl}-8-oxatricyclo[7.4.0.0^2,7]trideca-1(9),4,6,10,12-pentaen-3-one]
- CC50 at 3 days [5]: ~80 µM

- IC50 [3]: 0.026 ± 0.004 µM
- Kd [4]: 131 ± 15 µM
Compound: COc1ccc(/C=N/Nc2nc(-c3c(O)c(C)c(O)c4c3OC3=CC(O)=C(C(C)=O)C(=O)[C@@]34C)cs2)cc1COc1cccc(F)c1 [(+)-17b, (2R)-4-Acetyl-10-{2-[(E)-2-({3-[(3-fluorophenoxy)methyl]-4-methoxyphenyl}methylidene)hydrazin-1-yl]-1,3-thiazol-4-yl}-5,11,13-trihydroxy-2,12-dimethyl-8-oxatricyclo[7.4.0.0^2,7]trideca-1(9),4,6,10,12-pentaen-3-one]
- effect of the order of administration on the synergistic effect with topotecan ([6]; 30 minutes between additions): the simultaneous administration of drugs reduced the synergistic effect; also recorded: led to worse results when compared with simultaneous administration

- IC50 [3]: 0.043 ± 0.001 µM
- Kd [4]: 148 ± 9 µM
Compound: CC(=O)C1=C(O)C=C2Oc3c(-c4csc(N/N=C/c5ccc(Br)s5)n4)c(O)c(C)c(O)c3[C@]2(C)C1=O [(−)-16f, (2S)-4-Acetyl-5,11,13-trihydroxy-2,12-dimethyl-10-{2-[(E)-2-[(5-bromothiophen-2-yl)methylidene]hydrazin-1-yl]-1,3-thiazol-4-yl}-8-oxatricyclo[7.4.0.0^2,7]trideca-1(9),4,6,10,12-pentaen-3-one]
- CC50 at 3 days [5]: ~80 µM

Compound: CCCCN(CCCC)CC(=O)Nc1cc(C(F)(F)F)cc2c1SSSSS2 [compound 2]
- IC50 ([7]; read-out: IC50): 0.2 µM

Compound: COc1cnc2c(c1)C(=O)c1c-2n(CCCNC2=NCCS2)c(=O)c2cc([N+](=O)[O-])ccc12 [compound 4]
- IC50 ([7]; read-out: IC50 (Tdp1)): 1 to 12 µM
- IC50 [8]: < 1 µM
- IC50 [9]: 12 to 37 µM

Compound: CC1(C)[C@H]2CC=C(COc3ccc4c5c(c(=O)oc4c3)CCC5)[C@@H]1C2 [compound 7]
- IC50 ([7]; read-out: IC50): 0.67 µM

Compound: CC[C@@]1(O)C(=O)OCc2c1cc1n(c2=O)Cc2cc3c(CN(C)C)c(O)ccc3nc2-1 [topotecan, reference compound]
- CC50 ([6]; Homo sapiens, read-out: CC50 of topotecan alone): 6 µM

- IC50 [3]: 0.04 ± 0.003 µM
- Kd [4]: 771 ± 46 µM
Compound: (2S)-4-Acetyl-5,11,13-trihydroxy-2,12-dimethyl-10-{2-[(E)-2-[(thiophen-3-yl)methylidene] hydrazin-1-yl]-1,3-thiazol-4-yl}-8-oxatricyclo[7.4.0.0^2,7]trideca-1(9),4,6,10,12-pentaen-3-one amine [(−)-16j]

- IC50 [3]: 0.03 ± 0.011 µM
- Kd [4]: 130 ± 8 µM
Compound: (2S)-4-Acetyl-10-{2-[(E)-2-({3-[(3,4-difluorophenoxy)methyl]-4-methoxyphenyl}methylidene)hydrazin-1-yl]-1,3-thiazol-4-yl}-5,11,13-trihydroxy-2,12-dimethyl-8-oxatricyclo[7.4.0.0^2,7]trideca-1(9),4,6,10,12-pentaen-3-one [(−)-17e]
